Test results: US10696692B2, “Amido-benzyl sulfone and sulfoxide derivates” (Forma TM, LLC, priority 2012, dated 2020)

Tests used:
NAMPT = NAMPT (Homo sapiens (Human), UniProt P43490); assay: Assay 1: Biochemical Inhibition Assay (NAMPT enzymatic reaction, NMN quantified by mass spectrometry); conditions: read-out: Biochemical (IC50);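 further: recombinant His-tagged human NAMPT preincubated with compound 15 min, then reacted 30 min at rt with 1 µM NAM, 100 µM PRPP, 2.5 mM ATP, NMN product read by RapidFire MS, normalized to L-Cystathionine internal standard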
A2780 cells = assay: Assay 2: In-Vitro Cell Proliferation Assay (A2780 cells, SRB readout, 72 hours); format: cell-based; conditions: Homo sapiens, A2780, 72 h, A2780 cells, 72 hours, SRB; read-out: Cell Proliferation (IC50);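 further: viable cells counted via sulforhodamine B staining, absorbance at 570 nm, after 72 h exposure at 37 °C, DMSO 0.1% as control, media-only background subtracted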

NAMPT, sequence (P43490 whole entry): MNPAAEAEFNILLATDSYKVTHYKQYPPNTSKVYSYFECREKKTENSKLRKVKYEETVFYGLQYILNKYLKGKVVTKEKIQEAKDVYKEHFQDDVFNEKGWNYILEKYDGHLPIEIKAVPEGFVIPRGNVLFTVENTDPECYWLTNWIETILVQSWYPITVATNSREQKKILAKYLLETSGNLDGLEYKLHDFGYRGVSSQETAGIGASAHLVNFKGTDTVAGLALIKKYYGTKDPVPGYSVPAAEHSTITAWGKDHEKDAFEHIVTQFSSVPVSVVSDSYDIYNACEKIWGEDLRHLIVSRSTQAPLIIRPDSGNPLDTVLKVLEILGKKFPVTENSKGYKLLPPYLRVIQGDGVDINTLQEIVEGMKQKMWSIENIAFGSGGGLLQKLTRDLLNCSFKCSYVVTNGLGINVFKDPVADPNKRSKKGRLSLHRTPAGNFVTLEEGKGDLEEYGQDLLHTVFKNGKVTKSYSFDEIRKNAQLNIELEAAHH

SMILES	IC50 (NAMPT) [nM]	IC50 (A2780 cells) [nM]
O=C(NCc1ccc(S(=O)(=O)N2CC3(CCOCC3)C2)cc1)c1cnc2[nH]ncc2c1 [Example 269, N-[[4-(7-oxa-2-azaspiro[3.5]nonan-2-ylsulfonyl)phenyl]methyl]-1H-pyrazolo[3,4-b]pyridine-5-carboxamide]	113	45.1
O=C(NCc1ccc(S(=O)(=O)N2CC3(C2)CC(F)(F)C3)cc1)c1ccc2nccn2c1 [Example 270, N-[[4-[(6,6-difluoro-2-azaspiro[3.3]heptan-2-yl)sulfonyl]phenyl]methyl] imidazo[1,2-a]pyridine-6-carboxamide]	8.77	6.07
CN1CCC2(CC1)CN(S(=O)(=O)c1ccc(CNC(=O)c3ccc4nccn4c3)cc1)C2 [Example 271, N-[[4-[(7-methyl-2,7-diazaspiro[3.5]nonan-2-yl)sulfonyl]phenyl]methyl] imidazo[1,2-a]pyridine-6-carboxamide]	27.5	12.1
CN1CCOC2(C1)CN(S(=O)(=O)c1ccc(CNC(=O)c3ccc4nccn4c3)cc1)C2 [Example 272, N-[[4-[(8-methyl-5-oxa-2,8-diazaspiro[3.5]nonan-2-yl)sulfonyl]phenyl]methyl] imidazo[1,2-a]pyridine-6-carboxamide]	33.6	10
CN1CCCC12CN(S(=O)(=O)c1ccc(CNC(=O)c3ccc4nccn4c3)cc1)C2 [Example 273, N-[[4-[(5-methyl-2,5-diazaspiro[3.4]octan-2-yl)sulfonyl)phenyl]methyl] imidazo[1,2-a]pyridine-6-carboxamide]	25.4	10.4
O=C(NCc1ccc(S(=O)(=O)N2CC3(CCCO3)C2)cc1)c1ccc2nccn2c1 [Example 274, N-[(4-(5-oxa-2-azaspiro[3.4]octan-2-ylsulfonyl)phenyl]methyl] imidazo[1,2-a]pyridine-6-carboxamide]	19	5.93
O=C(NCc1ccc(S(=O)(=O)C2CCCOC2)cc1)c1cc2ccncc2o1 (stereo not drawn) [Example 275, N-[(4-tetrahydropyran-3-ylsulfonylphenyl)methyl]furo [2,3-c]pyridine-2-carboxamide]	30.4	50.3
O=C(NCc1ccc(S(=O)(=O)C2CCCOC2)cc1)c1ccc2nccn2c1 (stereo not drawn) [Example 276, N-[(4-tetrahydropyran-3-ylsulfonylphenyl)methyl] imidazo[1,2-a]pyridine-6-carboxamide]	32.9	19.9
Nc1ncc2c(n1)CN(C(=O)NCc1ccc(S(=O)(=O)C3CCOCC3)cc1)C2 [Example 277, 2-amino-N-[(4-tetrahydropyran-4-ylsulfonylphenyl)methyl]-5,7-dihydropyrrolo[3,4-d]pyrimidine-6-carboxamide]	2000	2000
O=C(NCc1ccc(S(=O)(=O)N2CC(F)(F)C2)cc1)c1cnc2[nH]ncc2c1 [Example 281, N-[[4-(3,3-difluoroazetidin-1-yl)sulfonylphenyl]methyl]-1H-pyrazolo[3,4-b]pyridine-5-carboxamide]	95.6	378
O=C(NCc1ccc(S(=O)(=O)N2CCC3(CCNC3=O)C2)cc1)c1cnc2[nH]ncc2c1 (stereo not drawn) [Example 282, N-[[4-[(1-oxo-2,7-diazaspiro[4.4]nonan-7-yl)sulfonyl)phenyl]methyl]-1H-pyrazolo[3,4-b]pyridine-5-carboxamide]	101	233
CN1CCC2(C1)CN(S(=O)(=O)c1ccc(CNC(=O)c3cnc4[nH]ncc4c3)cc1)C2 [Example 283, N-[[4-[(7-methyl-2,7-diazaspiro[3.4]octan-2-yl)sulfonyl]phenyl]methyl]-1H-pyrazolo[3,4-b]pyridine-5-carboxamide]	199	129
O=C(NCc1ccc(S(=O)(=O)N2CCC3(CCCO3)C2)cc1)c1cnc2[nH]ncc2c1 (stereo not drawn) [Example 284, N-[[4-(1-oxa-7-azaspiro[4.4]nonan-7-ylsulfonyl)phenyl]methyl]-1H-pyrazolo[3,4-b]pyridine-5-carboxamide]	70.9	42.9
O=C(NCc1ccc(S(=O)(=O)N2CCC23COC3)cc1)c1cnc2[nH]ncc2c1 [Example 285, N-[[4-(6-oxa-1-azaspiro[3.3]heptan-1-ylsulfonyl)phenyl]methyl]-1H-pyrazolo[3,4-b]pyridine-5-carboxamide]	206	2000
C[C@@H]1CN(S(=O)(=O)c2ccc(CNC(=O)c3cc4ccncc4o3)cc2)C[C@H](C)N1C1COC1 [Example 286, N-[[4-[(3S,5R)-3,5-dimethyl-4-(oxetan-3-yl)piperazin-1-yl]sulfonylphenyl]methyl]furo [2,3-c]pyridine-2-carboxamide]	14.5	0.488
O=C(NCc1ccc(S(=O)(=O)N2CC3CCC(F)(F)C3C2)cc1)c1cc2ccncc2o1 (stereo not drawn) [Example 296, N-[[4-[(4,4-difluoro-1,3,3a,5,6,6a-hexahydrocyclopenta[c]pyrrol-2-yl)sulfonyl]phenyl]methyl]furo [2,3-c]pyridine-2-carboxamide]	9.84	10.1
O=C(NCc1ccc(S(=O)(=O)N2CC3CC(F)(F)CC3C2)cc1)c1cc2ccncc2o1 (stereo not drawn) [Example 297, N-[[4-[(5,5-difluoro-1,3,3a,4,6,6a-hexahydrocyclopenta[c]pyrrol-2-yl)sulfonyl]phenyl]methyl]furo [2,3-c]pyridine-2-carboxamide]	16.6	51.2
COCCN1CCN(S(=O)(=O)c2ccc(CNC(=O)c3cc4ccncc4o3)cc2)CC1 [Example 298, N-[[4-[4-(2-methoxyethyl)piperazin-1-yl]sulfonylphenyl]methyl]furo [2,3-c]pyridine-2-carboxamide]	90.6	24.6
O=C(NCc1ccc(S(=O)(=O)N2CCC(CO)CC2)cc1)c1cc2ccncc2o1 [Example 299, N-[[4-[[4-(hydroxymethyl)-1-piperidyl]sulfonyl]phenyl]methyl]furo[2,3-c]pyridine-2-carboxamide]	24.4	11.1
O=C(NCc1ccc(S(=O)(=O)N2CCC(F)(F)C2)cc1)c1cc2ccncc2o1 [Example 300, N-[[4-(3,3-difluoropyrrolidin-1-yl)sulfonylphenyl]methyl]furo [2,3-c]pyridine-2-carboxamide]	21.4	21.5
O=C(NCc1ccc(S(=O)(=O)N2CC(F)(F)C2)cc1)c1cc2ccncc2o1 [Example 301, N-[[4-(3,3-difluoroazetidin-1-yl)sulfonylphenyl]methyl]furo [2,3-c]pyridine-2-carboxamide]	46.7	83.6
O=C(NCc1ccc(S(=O)(=O)N2CC3CCOC3C2)cc1)c1cc2ccncc2o1 (stereo not drawn) [Example 302, N-[[4-(2,3,3a,4,6,6a-hexahydrofuro[2,3-c]pyrrol-5-ylsulfonyl)phenyl]methyl]furo [2,3-c]pyridine-2-carboxamide]	41.8	27.1
O=C(NCc1ccc(S(=O)(=O)N2CCC3(CCCO3)C2)cc1)c1cc2ccncc2o1 (stereo not drawn) [Example 303, N-[[4-(1-oxa-7-azaspiro[4.4]nonan-7-ylsulfonyl)phenyl]methyl]furo [2.3-c]pyridine-2-carboxamide]	22.7	15.4

Results, then the molecule that gave them:

IC50 (NAMPT) [nM]	IC50 (A2780 cells) [nM]	SMILES
65.2	41.9	O=C(NCc1ccc(S(=O)(=O)N2CC3CC2CO3)cc1)c1cc2ccncc2o1 (stereo not drawn) [Example 304, N-[[4-(2-oxa-5-azabicyclo[2.2.1]heptan-5-ylsulfonyl)phenyl]methyl]furo [2,3-c]pyridine-2-carboxamide]
41.4	17.8	O=C(NCc1ccc(S(=O)(=O)N2CC3CCC(C2)O3)cc1)c1cc2ccncc2o1 [Example 305, N-[[4-(8-oxa-3-azabicyclo[3.2.1]octan-3-ylsulfonyl)phenyl]methyl]furo [2,3-c]pyridine-2-carboxamide]
1420	2000	O=C(NCc1ccc(S(=O)(=O)N2CCCCC2)cc1)c1ccn2cncc2c1 [Example 308, N-[[4-(1-piperidylsulfonyl)phenyl]methyl]imidazo[1,5-a]pyridine-7-carboxamide]
113	48.9	CCC(=O)N1CCC(S(=O)(=O)c2ccc(CNC(=O)c3cc4ccncc4o3)cc2)CC1 [Example 312, N-[[4-[(1-propanoyl-4-piperidyl)sulfonyl]phenyl]methyl]furo[2,3-c]pyridine-2-carboxamide]
35	53.8	CC(C)C(=O)N1CCC(S(=O)(=O)c2ccc(CNC(=O)c3cc4ccncc4o3)cc2)CC1 [Example 313, N-[[4-[[1-(2-methylpropanoyl)-4-piperidyl]sulfonyl]phenyl]methyl]furo[2,3-c]pyridine-2-carboxamide]
20.3	51.9	CCCC(=O)N1CCC(S(=O)(=O)c2ccc(CNC(=O)c3cc4ccncc4o3)cc2)CC1 [Example 314, N-[[4-[(1-butanoyl-4-piperidyl)sulfonyl]phenyl]methyl]furo[2,3-c]pyridine-2-carboxamide]
89	30.3	CC(C)N1CCC(S(=O)(=O)c2ccc(CNC(=O)c3ccc4nccn4c3)cc2)CC1 [Example 315, N-[[4-[(1-isopropyl-4-piperidyl)sulfonyl]phenyl]methyl]imidazo[1,2-a]pyridine-6-carboxamide]
82.1	87.7	NC1CCN(S(=O)(=O)c2ccc(CNC(=O)c3ccc4nccn4c3)cc2)CC1 [Example 317, N-[[4-[(4-amino-1-piperidyl)sulfonyl]phenyl]methyl]imidazo[1,2-a]pyridine-6-carboxamide]
106	102	O=C(NCc1ccc(S(=O)(=O)N2CCOC3(CCNCC3)C2)cc1)c1ccc2nccn2c1 [Example 319, N-[[4-(1-oxa-4,9-diazaspiro[5.5]undecan-4-ylsulfonyl)phenyl]methyl] imidazo[1,2-a]pyridine-6-carboxamide]
68.7	61.9	NC12CC1CN(S(=O)(=O)c1ccc(CNC(=O)c3ccc4nccn4c3)cc1)C2 (stereo not drawn) [Example 320, N-[[4-[(5-amino-3-azabicyclo[3.1.0]hexan-3-yl)sulfonyl]phenyl]methyl] imidazo[1,2-a]pyridine-6-carboxamide]
